Data published in the NIST ThermoML archive (doi:10.1021/je3007138).
Numbers after ± are expanded uncertainties.

Conditions: 351.2 K; Liquid; Ebulliometric method (Recirculating still)

CCO [ethanol]
vapor or sublimation pressure: 101.3 ± 3 kPa
